Experimental data reported in PubChem BioAssay AID489033 (Sanford-Burnham Center for Chemical Genomics, 2010).
Activity calls are given as the source filed them. No rule for the calls is given here.

System: 697B B-cell line, NF-kB luciferase reporter luminescence
Assay: inhibitors of B-cell NF-kB luciferase signal – 697B cells, luminescence, selectivity assay for T-cell antigen receptor NF-kB inhibitors, dose response (AID 489033)

Row | SMILES | IC50
1 | COc1ccc(OC)c(CCNC(=O)Cn2nc(C)c3c(C)n(-c4ccc(C)cc4)nc3c2=O)c1 | > 80 µM (inactive)
2 | CC(C)(C)c1cc(C=C(C#N)C#N)cc(C(C)(C)C)c1O | > 80 µM (inactive)
3 | CCCOC(=O)c1[nH]c2c(c1C)C(=O)CC(c1cccs1)C2 (stereo not drawn) | > 80 µM (inactive)
4 | CC(=O)N1c2ccc(S(=O)(=O)N3CCC(C(=O)Nc4cccc(C)n4)CC3)cc2CC1C (stereo not drawn) | 0.79 µM
5 | CCCCCN1C=CC(=C2C(=O)c3ccccc3C2=O)C=C1 | 0.38 µM
6 | C/C(=N\NC(=O)c1ccc(Cl)c(Cl)c1)c1ccccn1 | 1.03 µM
7 | CCc1ccc(N2C(=O)C(Cl)=C(Nc3ccc(C(=O)N4CCCC4)cc3)C2=O)cc1 | 2.28 µM
8 | CCCc1cc(C(=O)N/N=C/c2ccc(CC)s2)c2ccccc2n1 | 11.6 µM
9 | COc1ccccc1N=C(C)C1=C(O)CC(c2ccccc2)CC1=O (stereo not drawn) | > 80 µM (inactive)
10 | COc1cccc(OC)c1C1=NCC(=O)Nc2c1oc1ccc(Br)cc21 | 56.8 µM (inactive)
11 | Cc1nn(C)c(C)c1CN(Cc1nc(CCC(C)C)no1)C(C)C | > 80 µM (inactive)
12 | CCOC(=O)CC1CCCCN1C(=O)c1cc(COc2cccc3cnccc23)on1 (stereo not drawn) | > 80 µM (inactive)
13 | Cc1ccc(/C=C/c2ccc(N(C)C)cc2)[n+](C)c1 | > 80 µM (inactive)
14 | CCOC(=O)c1[nH]c(C)c(C(=O)Nc2ccccc2C)c1C | 40.3 µM (inactive)
15 | CSC1=NC(C(Cl)(Cl)Cl)N=C(c2ccc(C)cc2)N1 (stereo not drawn) | > 80 µM (inactive)
16 | c1ccc(-c2noc(-c3ccc4c(c3)OCO4)n2)nc1 | 1.27 µM
17 | COc1ccc(-c2csc(NC(=O)C3CCN(c4ncnc5sc(C)c(C)c45)CC3)n2)cc1OC | 11.6 µM
18 | Cc1ccc2[nH]c(-c3cccc(F)c3)cc(=O)c2c1 | > 80 µM (inactive)
19 | CCC(O)C1CCN(C(=O)c2cc(COc3ccc4ncccc4c3)on2)CC1 (stereo not drawn) | 3.88 µM
20 | COc1ccc(Cl)cc1NC(=O)CN(C)CC(=O)Nc1ccccc1N1CCOCC1 | > 80 µM (inactive)
21 | Cc1nnc(N/N=C/c2ccccn2)[nH]c1=O | 1.45 µM
22 | C/C(=N\NC(=O)c1cc(C)nc2ccccc12)c1ccccn1 | 1.23 µM
23 | COc1cc(C(=O)N2CCN(c3cc(Cl)ccc3Cl)CC2)cc(OC)c1OC | > 80 µM (inactive)
24 | CCCC(=O)NC(c1ccc(C)cc1)c1ccc2cccnc2c1O (stereo not drawn) | > 80 µM (inactive)

Row | SMILES | IC50
25 | C/C=C(\C)C(=O)N[C@@H](c1ccccc1)[C@@H](O)C(=O)O[C@H]1C[C@@]2(O)[C@@H](OC(=O)c3ccccc3)C3[C@](C)(C(=O)[C@H](OC(C)=O)C(=C1C)C2(C)C)[C@@H](O)C[C@H]1OC[C@@]31OC(C)=O (stereo partly drawn) | > 80 µM (inactive)
26 | O=C(c1ccc(Cl)cc1)c1cc([N+](=O)[O-])ccc1N1CCOCC1 | 76 µM (inactive)
27 | CC(=O)O[C@H]1C(=O)[C@@]2(C)[C@H]([C@H](OC(=O)c3ccccc3)[C@]3(O)C[C@H](OC(=O)[C@H](O)[C@@H](NC(=O)c4ccccc4)c4ccccc4)C(C)=C1C3(C)C)[C@]1(OC(C)=O)CO[C@@H]1C[C@@H]2O | > 80 µM (inactive)
28 | O=C(Nc1ccc(F)cc1)c1ccc(CN2CCc3ccccc3C2)cc1 | > 80 µM (inactive)
29 | CCOC(=O)c1[nH]c2c(c1C)C(=O)CC(c1ccco1)C2 (stereo not drawn) | > 80 µM (inactive)
30 | Cc1ccc(-c2cc(C(F)F)n3ncc(C(=O)N4CCc5ccccc54)c3n2)cc1 | > 80 µM (inactive)
31 | COc1cc(C2C(C#N)=C(N)Oc3cc4c(cc32)OCO4)cc(OC)c1OC (stereo not drawn) | > 80 µM (inactive)
32 | CSc1nc(N(C)NC(=O)c2cccc(C)c2)c2ccccc2n1 | > 80 µM (inactive)
33 | CC1CCCN(c2ncnc3c2cnn3-c2ccc(Cl)cc2)C1 (stereo not drawn) | < 0.16 µM
34 | Cc1ccc(S(=O)(=O)NCc2ccncc2)c(C)c1C | > 80 µM (inactive)
35 | Cc1cccc(N2CCN(C(=O)c3ccc(S(=O)(=O)N(C)c4ccccc4)cc3)CC2)c1C | > 80 µM (inactive)
36 | Cc1cccc(N2CCN(C(=O)c3c(-c4ccccc4Cl)noc3C)CC2)c1C | > 80 µM (inactive)
37 | CCOc1cc(C#N)c(NC(=O)c2cccnc2)cc1OCC | > 80 µM (inactive)
38 | CCO[C@@H]1OC(C(=O)NCc2nc3ccccc3[nH]2)=C[C@H](C(C)(C)C)[C@H]1CCCO | > 80 µM (inactive)
39 | CCOc1ccccc1NC(=O)Cn1nnc(C(=O)NCc2cccs2)c1N | > 80 µM (inactive)
40 | CCOc1ccc(S(=O)(=O)N2c3ccccc3CC2C)cc1 (stereo not drawn) | > 80 µM (inactive)
41 | Clc1cccc(Cl)c1/C=N/Nc1c(Cl)cncc1Cl | > 80 µM (inactive)
42 | O=C1/C(=C/c2ccc(N3CCOCC3)o2)SC(=Nc2ccccc2)N1CCc1c[nH]c2ccccc12 | 12.8 µM
43 | COc1ccc(/C=N/NC(=O)COc2ccccc2-c2ccccc2)cc1 | 76.2 µM (inactive)
44 | CC(=O)O[C@@]12CO[C@@H]1C[C@@H](O)[C@@]1(C)C(=O)[C@H](O)C3=C(C)[C@@H](OC(=O)[C@H](O)[C@@H](NC(=O)c4ccccc4)c4ccccc4)C[C@@](O)([C@@H](OC(=O)c4ccccc4)C12)C3(C)C (stereo partly drawn) | > 80 µM (inactive)
45 | Cc1cc(C(C)(C)C)cc(C)c1C[n+]1ccc2ccccc2c1 | > 80 µM (inactive)
46 | O=C(Nc1ncc(Cc2ccc(SC(F)F)cc2)s1)c1ccc(OC(F)F)cc1 | > 80 µM (inactive)
47 | Cc1nc(Sc2nnnn2C)c2c3c(sc2n1)CCC3 | > 80 µM (inactive)
48 | Cc1cc(C)c(S(=O)(=O)Nc2ccc3c4c(cccc24)CC3)c(C)c1 | > 80 µM (inactive)

Row | SMILES | IC50
49 | Cc1cc(O)c2c(c1O)C(=O)[C@]13C(=C2O)C(=O)[C@@H]2[C@@H](O)[C@H]1[C@@H]1[C@H](O)[C@H]3C(=O)C3=C(O)c4c(O)cc(C)c(O)c4C(=O)[C@]312 | > 80 µM (inactive)
50 | C/C=C(\C)C(=O)N[C@@H](c1ccccc1)[C@@H](O)C(=O)O[C@H]1C[C@@]2(O)[C@@H](OC(=O)c3ccccc3)C3[C@](C)(C(=O)[C@H](O)C(=C1C)C2(C)C)[C@@H](O)C[C@H]1OC[C@@]31OC(C)=O (stereo partly drawn) | > 80 µM (inactive)
51 | O=c1cc(-c2ccccc2)[nH]c2ccccc12 | > 80 µM (inactive)
52 | COC(=O)Nc1ccc(S(=O)(=O)N2c3ccccc3CCC2C)cc1 (stereo not drawn) | > 80 µM (inactive)
53 | CCOc1ccccc1C1CC(=O)Nc2cc3c(cc21)OCCO3 (stereo not drawn) | > 80 µM (inactive)
54 | C(=N\Nc1nc2ccccc2s1)/c1ccccn1 | 0.39 µM
55 | CN(C)c1ccc2c(c1)OC(N)=C(C#N)C2c1cccc(F)c1 (stereo not drawn) | > 80 µM (inactive)
56 | Cc1ccc(S(=O)(=O)NCc2ccncc2)cc1C | > 80 µM (inactive)
57 | CCc1c(C)nc2ncnn2c1NCCc1ccc(OC)cc1 | > 80 µM (inactive)
58 | O=C(NNc1ccnc2cc(Cl)ccc12)C1CCCCC1 | > 80 µM (inactive)
59 | COc1ccccc1-c1nnc2n1N=C(c1ccc(O)c(O)c1)CS2 | 77.9 µM (inactive)
60 | COc1ccc(NC(=O)/C(Cl)=C(/Cl)S(=O)Cc2ccc(Cl)cc2)cn1 (stereo not drawn) | 0.18 µM
61 | CCCCCCCCCCCCCCCC[n+]1ccc(C(N)=O)cc1 | 8.82 µM
62 | CCCCS(=O)(=O)/C=C\C=C/S(=O)(=O)CCCC | 3.51 µM
63 | C=C(C=O)C[C@@H]1C[C@H](O)C2OC3C[C@]4(C)OC5/C=C\CC6OC7C(CC=CCC6OC5CCCC4OC3CC2O1)OC1CC2OC3CC(=O)OC3C[C@@H](C)C[C@@]2(C)OC1C[C@@H]7C (stereo partly drawn) | 1.02 µM
64 | CCc1ccc(S(=O)(=O)/N=C2\C=C(Nc3ccc(O)cc3)C(=O)c3ccccc32)cc1 | 5.19 µM
65 | COc1ccc(S(=O)(=O)Nc2cccc(-c3ccc4nncn4n3)c2)cc1F | > 80 µM (inactive)
66 | O=C(Nc1ccc(Oc2cccnc2)nc1)c1ccc(C(F)(F)F)cc1 | 0.25 µM
67 | Cc1ccc(C(=O)N/N=C/c2ccc([N+](=O)[O-])s2)cc1 | 4.21 µM
68 | Cc1ccc(/C=N/NC(=O)c2c(C)nc3ccc(Br)cn23)cc1 | > 80 µM (inactive)
69 | CC(C)c1oc(=O)cc2c1[C@@H](O)[C@H]1OC(=O)[C@@]3(C)C[C@@H](O)[C@@H](O)[C@@]2(C)C13 (stereo partly drawn) | 7.2 µM
70 | O=S(=O)(Nc1ccc(F)cc1Cl)c1ccc(-c2cnc(C3CC3)o2)cc1 | 73.4 µM (inactive)
71 | COc1cccc(/C=N/NC(=O)c2[nH]nc3c2CCc2ccccc2-3)c1O | 61.7 µM (inactive)
72 | CCOC(=O)C(C)Oc1cccc2c(=O)n(CC(=O)NCc3ccco3)ccc12 (stereo not drawn) | > 80 µM (inactive)

Row | SMILES | IC50
73 | Cc1c(C(=O)OCc2ccccc2)[nH]c2c1C(=O)CC(c1ccco1)C2 (stereo not drawn) | > 80 µM (inactive)
74 | Cc1ccc2c(c1)Oc1ccc(NC(=O)CCl)cc1C(=O)N2 | 0.72 µM
75 | Cc1c(C(=O)N/N=C/c2ccc(Cl)cc2)[nH]c2ccc(Cl)cc12 | > 80 µM (inactive)
76 | O=C(COc1ccccc1-c1ccccc1)N/N=C/c1cccc2ccccc12 | > 80 µM (inactive)
77 | C=CCSc1nc2ccccc2n1C(=O)/C=C/c1cc(OC)c(OC)c(OC)c1 | > 80 µM (inactive)
78 | Cc1ccc(-n2ncc3c(N4CCN(c5ccccc5)CC4)ncnc32)c(C)c1 | 5.39 µM
79 | CCCOc1ccccc1C1CC(=O)Nc2cc3c(cc21)OCO3 (stereo not drawn) | > 80 µM (inactive)
80 | CC(=O)NC(c1ccc2ccccc2c1)c1ccc2cccnc2c1O (stereo not drawn) | > 80 µM (inactive)
81 | O=C(N[C@@H](Cc1ccccc1)C(=O)CCl)OCc1ccccc1 | 5.69 µM
82 | COc1ccc(C)c(Cn2c(-c3nonc3N)nc3ccccc32)c1 | > 80 µM (inactive)
83 | CCN(CC)c1ccc(/C=N/NC(=O)c2cccc(S(=O)(=O)Nc3ccccc3OC)c2)c(O)c1 | 3.3 µM
84 | C=C(C)COc1ccc(-c2n[nH]c(C)c2-c2ccc(OC)c(OC)c2)c(O)c1 | 43.3 µM (inactive)
85 | CCCN1C=CC(=C2C(=O)c3ccccc3C2=O)C=C1 | < 0.16 µM
86 | c1ccc(-c2noc(-c3ccc4ccccc4c3)n2)nc1 | 0.73 µM
87 | Cc1c(C)c2ccc(OCC(=O)Nc3ccccn3)c(C)c2oc1=O | 7.65 µM
88 | COc1ccc(N/N=C/c2c(C(=O)O)ccc3ccccc23)cc1 | 58.4 µM (inactive)
89 | COc1ccc(COC(=O)c2cc([N+](=O)[O-])ccc2N2CCOCC2)cc1F | 37.1 µM (inactive)
90 | CCOC(=O)/C=C/S(=O)(=O)c1ccc(NC(C)=O)cc1 | 0.39 µM
91 | Cn1cc(/C=N/n2cnc3scc(-c4ccc(Cl)cc4)c3c2=O)c2ccccc21 | > 80 µM (inactive)
92 | Cc1cc(-c2ccc(C)c(S(=O)(=O)N3CCN(c4ccc([N+](=O)[O-])cc4)CC3)c2)on1 | > 80 µM (inactive)
93 | O=C(Nc1ccc(S(=O)(=O)Nc2ccccc2)cc1)c1ccc(CN2CCOCC2)cc1 | 46.1 µM (inactive)
